Laboratory results taken from ChEMBL document CHEMBL4706484, “Apigenin-rivastigmine hybrids as multi-target-directed liagnds for the treatment of Alzheimer's disease” (Eur J Med Chem, 2020).
Calls of active or inactive are those of the source. No cut-off for these calls is given here.

What was measured:
[1] = Acute toxicity in 2 dpf zebrafish assessed as abnormal liver size at 1.39 to 12.5 ug/ml measured after 3 days; set-up: species or system Danio rerio; details: in vivo, 72 h, dose 1.39-12.5 µg/ml, time 3 day
[2] = test system: PC-12; assay: Cytotoxicity against rat PC-12 cells assessed as reduction in cell viability <= 100 uM measured after 48 hrs by MTT assay; format: cell-based; details: pc-12, 48 h
[3] = target: T1, Acetylcholinesterase (Rattus norvegicus, UniProt P37136); assay: Inhibition of rat cortex AChE using acetylthiocholine iodide as substrate measured after 15 mins by Ellman's method; format: tissue-based
T1 sequence (P37136 whole entry): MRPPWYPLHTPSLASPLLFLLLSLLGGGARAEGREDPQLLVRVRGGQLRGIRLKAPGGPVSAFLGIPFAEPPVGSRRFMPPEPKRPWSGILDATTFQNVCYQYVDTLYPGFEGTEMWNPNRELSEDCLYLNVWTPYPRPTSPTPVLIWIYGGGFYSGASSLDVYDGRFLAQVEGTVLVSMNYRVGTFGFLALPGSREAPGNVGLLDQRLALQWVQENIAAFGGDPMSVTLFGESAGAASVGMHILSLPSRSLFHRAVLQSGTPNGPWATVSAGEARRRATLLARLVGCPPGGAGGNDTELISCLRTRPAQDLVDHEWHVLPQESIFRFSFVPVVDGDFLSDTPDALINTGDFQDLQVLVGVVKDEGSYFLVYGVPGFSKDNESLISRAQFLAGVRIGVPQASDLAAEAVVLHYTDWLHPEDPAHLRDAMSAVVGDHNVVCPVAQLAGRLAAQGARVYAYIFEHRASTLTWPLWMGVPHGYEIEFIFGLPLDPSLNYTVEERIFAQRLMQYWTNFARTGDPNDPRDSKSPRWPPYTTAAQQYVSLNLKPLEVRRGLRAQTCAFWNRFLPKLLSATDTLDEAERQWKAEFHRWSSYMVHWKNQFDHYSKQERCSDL

[4] = test system: Mus musculus; assay: Cognitive enhancing effect in scopolamine-induced Kunming mouse model of memory impairment assessed as effect on total arm entries at 5 to 20 mg/kg by Y-maze test; format: functional, organism-based; details: dose 5-20 mg/kg
[5] = Acute toxicity in 2 dpf zebrafish assessed as small or misshapen brain at 1.39 to 12.5 ug/ml measured after 3 days; format: tissue-based, Danio rerio; details: in vivo, 72 h, dose 1.39-12.5 µg/ml, time 3 day
[6] = target: Amyloid-beta precursor protein (Homo sapiens) (UniProt P05067); assay: Disaggregation of self-induced amyloid beta (1 to 42) (unknown origin) preformed fibrils at 25 uM by ThT fluorescence assay relative to control
[7] = test system: PC-12; assay: Neuroprotective activity against H2O2-induced cell injury in rat PC-12 cells assessed as increase in cell viability causing decrease in LDH content preincubated for 2 hrs followed by H2O2 addition and measured after 24 hrs by LDH assay; format: functional, cell-based; details: dose 5-10 µM, time 26.0 hrs
[8] = Acute toxicity in 2 dpf zebrafish assessed as kidney edema at 1.39 to 12.5 ug/ml measured after 3 days; set-up: species or system Danio rerio; details: in vivo, 72 h, dose 1.39-12.5 µg/ml, time 3 day
[9] = Acute toxicity in 2 dpf zebrafish assessed as small or misshapen eyes at 1.39 to 12.5 ug/ml measured after 3 days; set-up: species or system Danio rerio; details: in vivo, 72 h, dose 1.39-12.5 µg/ml, time 3 day
[10] = target: Amyloid-beta precursor protein (Homo sapiens) (UniProt P05067); assay: Inhibition of self-induced amyloid beta (1 to 42) (unknown origin) aggregation at 25 uM by ThT fluorescence assay relative to control
[11] = Metal chelating activity assessed as Zn2+-compound complex formation at 37.5 uM in presence of 37.5 uM ZnCl2 by UV-Vis spectrophotometric analysis
[12] = target: T2, Cholinesterase (Homo sapiens, UniProt P06276); assay: Pseudo-irreversible inhibition of human serum BChE assessed as enzyme recovery activity at IC50 using undiluted compound relative to control; format: cell-free; set-up: scale not given: the % may be the effect or the level left
[13] = species on record: Danio rerio; assay: Antialzheimer activity against 3 dpf zebrafish model of AlCl3-induced AD assessed as change in motility distance at 4.2 ug/ml (reference value: 5204 mm); format: functional; details: dose 4.2 µg/ml
[14] = Metal chelating activity assessed as compound-Cu2+ complex stoichiometry ratio of 1:1 at 37.5 uM in presence of CuCl2 by UV-visible spectrophotometric analysis
[15] = species on record: Danio rerio; assay: Antialzheimer activity against 3 dpf zebrafish model of AlCl3-induced AD assessed as increase in motility distance; format: functional, organism-based
[16] = species on record: Danio rerio; assay: Antialzheimer activity against 3 dpf zebrafish model of AlCl3-induced AD assessed as motility by measuring efficacy on speed change at 12.5 ug/ml relative to control; format: functional; details: dose 12.5 µg/ml
[17] = target: T2, Cholinesterase; assay: Pseudo-irreversible inhibition of human serum BChE assessed as enzyme recovery activity at IC50 using diluted compound relative to control; format: cell-free; set-up: scale not given: the % may be the effect or the level left
[18] = Acute toxicity in Kunming mouse at 1000 mg/kg; format: organism-based; details: in vivo
[19] = test system: Mus musculus; assay: Reversal of scopolamine-induced Kunming mouse model of memory impairment assessed as spontaneous alteration at 5 mg/kg by Y-maze test; format: functional, organism-based
[20] = target: T2, Cholinesterase; assay: Pseudo-irreversible inhibition of human serum BChE assessed as enzyme recovery activity at 0.1 times IC50 using diluted compound relative to control; format: cell-free; set-up: scale not given: the % may be the effect or the level left
[21] = species on record: Danio rerio; assay: Protection against amyloid beta (1 to 40 residues)-induced vascular injury in transgenic zebrafish assessed as vascular injury rate at 12.5 ug/ml (reference value: 73.3 %); format: functional; details: dose 12.5 µg/ml
[22] = Acute toxicity in 2 dpf zebrafish assessed as dark brown liver at 1.39 to 12.5 ug/ml measured after 3 days; set-up: species or system Danio rerio; details: in vivo, 72 h, dose 1.39-12.5 µg/ml, time 3 day
[23] = Acute toxicity in 2 dpf zebrafish assessed as absent blood flow at 1.39 to 12.5 ug/ml measured after 3 days; format: tissue-based, Danio rerio; details: 72 h, dose 1.39-12.5 µg/ml, time 3 day
[24] = species on record: Danio rerio; assay: Antialzheimer activity against 3 dpf zebrafish model of AlCl3-induced AD assessed as motility by measuring change in speed at 4.2 ug/ml (reference value: 1.05 mm/s); format: functional; details: dose 4.2 µg/ml
[25] = Cytotoxicity against human L02 cells assessed as cell viability at 12.5 uM measured after 72 hrs by MTT assay relative to control; format: cell-based; details: read-out: Activity
[26] = Inhibition of copper-induced amyloid beta (1 to 42) (unknown origin) aggregation measured after 24 hrs by TEM analysis
[27] = Acute toxicity in 2 dpf zebrafish assessed as degenerating trunk muscle within somite at 1.39 to 12.5 ug/ml measured after 3 days; format: tissue-based, Danio rerio; details: in vivo, 72 h, dose 1.39-12.5 µg/ml, time 3 day
[28] = Permeability of the compound in PBS/EtOH (70:30) at 100 ug/ml by PAMPA-BBB assay; format: ADME; details: dose 100 µg/ml, read-out: permeability
[29] = species on record: Danio rerio; assay: Protection against amyloid beta (1 to 40 residues)-induced vascular injury in transgenic zebrafish assessed as vascular injury rate at 1.4 ug/ml (reference value: 73.3 %); format: functional; details: dose 1.4 µg/ml
[30] = species on record: Danio rerio; assay: Antialzheimer activity against 3 dpf zebrafish model of AlCl3-induced AD assessed as motility by measuring efficacy on speed change at 4.2 ug/ml relative to control; format: functional; details: dose 4.2 µg/ml
[31] = test system: SH-SY5Y; assay: Neuroprotective activity against amyloid beta (1 to 42 residues)-induced cell injury in human SH-SY5Y cells assessed as cell viability at 10 uM preincubated for 2 hrs followed by H2O2 addition and measured after 24 hrs by MTT assay (reference value: 52.3 %); format: functional; details: time 26 hrs, read-out: Activity
[32] = Acute toxicity in 2 dpf zebrafish assessed as death at 1.39 to 12.5 ug/ml measured after 3 days; set-up: species or system Danio rerio; details: in vivo, 72 h, dose 1.39-12.5 µg/ml, time 3 day

T2 sequence (P06276 whole entry): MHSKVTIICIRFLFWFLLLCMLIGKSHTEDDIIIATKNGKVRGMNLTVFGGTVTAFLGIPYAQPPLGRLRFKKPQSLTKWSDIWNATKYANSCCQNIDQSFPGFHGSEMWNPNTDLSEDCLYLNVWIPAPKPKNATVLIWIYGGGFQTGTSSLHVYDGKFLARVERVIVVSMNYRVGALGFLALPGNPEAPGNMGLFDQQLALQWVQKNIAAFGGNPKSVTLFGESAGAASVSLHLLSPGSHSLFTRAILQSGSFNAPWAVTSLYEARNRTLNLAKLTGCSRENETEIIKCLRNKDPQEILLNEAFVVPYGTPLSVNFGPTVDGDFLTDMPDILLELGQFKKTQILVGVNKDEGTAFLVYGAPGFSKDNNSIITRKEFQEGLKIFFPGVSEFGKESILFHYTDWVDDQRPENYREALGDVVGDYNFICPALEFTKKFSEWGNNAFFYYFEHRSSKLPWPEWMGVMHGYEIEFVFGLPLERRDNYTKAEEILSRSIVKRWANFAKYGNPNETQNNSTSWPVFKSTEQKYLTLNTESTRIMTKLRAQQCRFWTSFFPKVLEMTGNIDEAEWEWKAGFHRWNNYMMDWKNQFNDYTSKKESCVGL
Chain of Amyloid-beta precursor protein (Homo sapiens) (P05067 whole entry): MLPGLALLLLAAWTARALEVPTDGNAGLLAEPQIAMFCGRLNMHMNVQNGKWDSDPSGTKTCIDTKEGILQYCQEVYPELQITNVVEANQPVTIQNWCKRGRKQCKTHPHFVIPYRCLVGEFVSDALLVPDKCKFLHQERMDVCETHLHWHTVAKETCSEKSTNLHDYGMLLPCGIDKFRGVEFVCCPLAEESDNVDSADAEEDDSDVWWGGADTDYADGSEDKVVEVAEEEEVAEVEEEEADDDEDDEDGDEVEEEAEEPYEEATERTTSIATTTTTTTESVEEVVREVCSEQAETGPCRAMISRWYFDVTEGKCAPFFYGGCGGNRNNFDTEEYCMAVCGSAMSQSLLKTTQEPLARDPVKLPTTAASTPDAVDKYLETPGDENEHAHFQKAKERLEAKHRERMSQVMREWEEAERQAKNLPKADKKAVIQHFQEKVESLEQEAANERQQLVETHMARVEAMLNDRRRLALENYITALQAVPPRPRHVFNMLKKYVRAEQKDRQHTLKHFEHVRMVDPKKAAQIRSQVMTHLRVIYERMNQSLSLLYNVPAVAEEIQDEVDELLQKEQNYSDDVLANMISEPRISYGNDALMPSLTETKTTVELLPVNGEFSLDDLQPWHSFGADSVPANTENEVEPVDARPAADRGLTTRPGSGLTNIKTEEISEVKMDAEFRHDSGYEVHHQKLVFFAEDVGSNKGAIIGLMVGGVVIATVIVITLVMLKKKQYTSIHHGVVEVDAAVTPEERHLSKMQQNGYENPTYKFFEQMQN

In the case of CCN(C)C(=O)Oc1ccc(-c2cc(=O)c3c(O)cc(OC(=O)N(C)CC)cc3o2)cc1, the Activity [1] is reported as “Non-Toxic”, the Activity [2] is reported as “Non-Toxic” and the IC50 [3] is reported as 4.7 µM. For the same molecule, the Activity [4] was “inactive”, the Activity [5] was “Non-Toxic” and the Activity [6] was 66.2%. The Activity [7] was “Dose-dependent effect”, the Activity [8] was “Non-Toxic” and the Activity [9] was “Non-Toxic”. The inhibition [10] was 77.9%, the Activity [11] was “inactive” and the Activity [12] was 50.6%. For the same molecule, the Activity [13] was 6562 mm, the Activity [14] was “Active” and the Activity [15] was “Dose-dependent effect”. The Efficacy [16] was 87%, the Activity [17] was 54.1% and the Activity [18] was “Non-Toxic”. The Activity [19] was “inactive”, the Activity [20] was 44.8% and the Activity [21] was 27%. The Activity [22] was “Non-Toxic”, the Activity [23] was “Non-Toxic” and the Activity [24] was 1.98 millimeter/sec. The viability at 72 h, 12.5 µM [25] was 95.6%, the inhibition [26] was “Active” and the Activity [27] was “Non-Toxic”. The Papp at 100 ug/ml [28] was 155 nm/s, the Activity [29] was 60% and the Efficacy [30] was 72%. The viability at 10 µM [31] was 72.3% and the Activity [32] was “Non-Toxic”.
